# Patent US20160324836A1, “INJECTABLE DEPOT FORMULATIONS” (pSivida US.Inc., priority 2015, published 2016)
# Assay: Solubility in ethanol
# Assay type: physicochemical
# Conditions: organic solvent or mixture
# Description: In preferred embodiments, the solvent is ethanol. […] Similarly, preferred kinase inhibitors, such as apatinib, axitinib, cabozantinib, cediranib, crenolanib, foretinib, lenvatinib, linifanib, masitinib, motesanib, nintedanib, pazopanib, pegaptanib, regorafenib, semaxanib, sorafenib, sunitinib, tivozanib, toceranib, vandetanib, vatalanib, bafetinib, bosutinib, dasatinib, imatinib, nilotinib, ponatinib, radotinib, and SU6656, are generally soluble in ethanol, e.g., at 1.0 mg/mL or higher.
compound,measurement,value
CNC(=O)c1cc(Oc2ccc(NC(=O)Nc3ccc(Cl)c(C(F)(F)F)c3)cc2)ccn1 [sorafenib],solubility,~3300 µg/mL
